Assay results: patent publication US8586551B2, “18-membered macrocycles and analogs thereof” (Optimer Pharmaceuticals, Inc., priority 2005, dated 2013)
Values after ≈ are worked out from the molar mass of the structure shown.

Columns and labels:
Assay type in all cases: cell-based
[1] = test system: C. difficile clinical isolates; test: MIC via agar dilution versus 110 clinical isolates of C. difficile
[2] = test system: Finegoldia magna; test: MIC against anaerobes: Finegoldia magna; conditions: Finegoldia magna (15)
[3] = test system: Enterococcus species; test: MIC against intestinal bacteria: Enterococcus species; conditions: Enterococcus species (21)
[4] = test system: Clostridium clostridioforme; test: MIC against intestinal bacteria: Clostridium clostridioforme; conditions: Clostridium clostridioforme (4)
Method: (§1) The in vitro activity of OPT-80 against intestinal bacteria was evaluated. The experimental procedure for which is outlined in Antimicrobial Agents and Chemotherapy, 2004, 48: 4898-4902, which is hereby incorporated by reference in its entirety.
(§2) Antimicrobial concentration ranges were selected to encompass or surpass the levels that would be achieved in the gut (to the extent that this information is available), subject to the limitations of solubility of the drugs in the testing medium. The range of concentration of OPT-80 used during testing was 0.03 μg/ml to 1024 μg/ml.
(§3) For analysis, the bacteria tested were generally placed into genus, species, or other groups with at least 10 isolates. The ranges and the MICs at which 50 and 90% of isolates were inhibited were determined except for organisms with fewer than 10 strains tested, for which only the ranges are reported (Table 8).

[5] = test system: Clostridium innocuum; test: MIC against intestinal bacteria: Clostridium innocuum; conditions: Clostridium innocuum (9)
Method: as §1, §2, §3

[6] = test system: Clostridium tertium; test: MIC against anaerobes: Clostridium tertium; conditions: Clostridium tertium (10)
[7] = test system: Miscellaneous gram-positive non-spore-forming rods; test: MIC against anaerobes: miscellaneous gram-positive non-spore-forming rods; conditions: Miscellaneous gram-positive non-spore-forming rods (20)
[8] = test system: All anaerobic gram-negative species; test: MIC against intestinal bacteria: all anaerobic gram-negative species
[9] = test system: Propionibacterium acnes; test: MIC against anaerobes: Propionibacterium acnes; conditions: Propionibacterium acnes (20)
[10] = test system: Veillonella spp.; test: MIC against intestinal bacteria: Veillonella; conditions: Veillonella spp. (10)
Method: as §1, §2, §3

[11] = test system: Fusobacterium species, miscellaneous; test: MIC against anaerobes: Fusobacterium species, miscellaneous; conditions: miscellaneous (14)
Method: The in vitro activity of OPT-80 was determined against 350 anaerobes. The experimental procedure for which is outlined in Antimicrobial Agents and Chemotherapy, 2004, 48: 4430-4434, which is hereby incorporated by reference in its entirety.
All organisms, including the 21 C. difficile strains, were separate isolates and not clonally related. All quality-control gram-negative and -positive strains recommended by NCCLS were included with each run: in every case, results (where available) were in range.

Structure (SMILES): CCc1c(Cl)c(O)c(Cl)c(O)c1C(=O)O[C@H]1[C@H](O)[C@H](OC)[C@H](OCC2=CC=CC[C@H](O)C(C)=C[C@H](CC)[C@@H](O[C@@H]3OC(C)(C)[C@@H](OC(=O)C(C)C)[C@H](O)[C@@H]3O)C(C)=CC(C)=CC[C@@H]([C@@H](C)O)OC2=O)O[C@@H]1C [R-Tiacumicin B, 3-[[[6-Deoxy-4-O-(3,5-dichloro-2-ethyl-4,6-dihydroxybenzoyl)-2-O-methyl-β-D-mannopyranosyl]oxy]-methyl]-12(R)-[[6-deoxy-5-C-methyl-4-O-(2-methyl-1-oxopropyl)-β-D-lyxo-hexopyranosyl]oxy]-11(S)-ethyl-8(S)-hydroxy-18(S)-(1(R)-hydroxyethyl)-9,13,15-trimethyloxacyclooctadeca-3,5,9,13,15-pentaene-2-one]
- MIC ([1]; isolate 91 6339): 0.125 µg/mL (≈ 0.118 µM)
- MIC ([1]; isolate 93 6341): 0.125 µg/mL (≈ 0.118 µM)
- MIC ([1]; isolate 95 6347): 0.125 µg/mL (≈ 0.118 µM)
- MIC ([1]; isolate 98 6350): 0.125 µg/mL (≈ 0.118 µM)
- MIC ([1]; isolate 100 6353): 0.125 µg/mL (≈ 0.118 µM)
- MIC ([1]; isolate A1 1535): 0.125 µg/mL (≈ 0.118 µM)
- MIC ([1]; isolate AF1 1808): 0.125 µg/mL (≈ 0.118 µM)
- MIC ([1]; isolate AG1 3044): 0.125 µg/mL (≈ 0.118 µM)
- MIC ([1]; isolate AH1 3430): 0.125 µg/mL (≈ 0.118 µM)
- MIC ([1]; isolate AN1 464): 0.125 µg/mL (≈ 0.118 µM)
- MIC ([1]; isolate AO1 287): 0.125 µg/mL (≈ 0.118 µM)
- MIC ([1]; isolate AS1 4099): 0.125 µg/mL (≈ 0.118 µM)
- MIC ([1]; isolate AT1 1216): 0.125 µg/mL (≈ 0.118 µM)
- MIC ([1]; isolate AW1 4501): 0.125 µg/mL (≈ 0.118 µM)
- MIC ([1]; isolate BE1 4307): 0.125 µg/mL (≈ 0.118 µM)
- MIC ([1]; isolate BI1 1675): 0.125 µg/mL (≈ 0.118 µM)
- MIC ([1]; isolate BK1 4291): 0.125 µg/mL (≈ 0.118 µM)
- MIC ([1]; isolate BL1 716): 0.125 µg/mL (≈ 0.118 µM)
- MIC ([1]; isolate BN1 1322): 0.125 µg/mL (≈ 0.118 µM)
- MIC ([1]; isolate BW1 3130): 0.125 µg/mL (≈ 0.118 µM)
- MIC ([1]; isolate BX1 4271): 0.125 µg/mL (≈ 0.118 µM)
- MIC ([1]; isolate CF1 5922): 0.125 µg/mL (≈ 0.118 µM)
- MIC ([1]; isolate CG1 1566): 0.125 µg/mL (≈ 0.118 µM)
- MIC ([1]; isolate CJ1 893): 0.125 µg/mL (≈ 0.118 µM)
- MIC ([1]; isolate CP1 5491): 0.125 µg/mL (≈ 0.118 µM)
- MIC ([1]; isolate F1 1015): 0.125 µg/mL (≈ 0.118 µM)
- MIC ([1]; isolate G1 1077): 0.125 µg/mL (≈ 0.118 µM)
- MIC ([1]; isolate I1 1389): 0.125 µg/mL (≈ 0.118 µM)
- MIC ([1]; isolate K1 4305): 0.125 µg/mL (≈ 0.118 µM)
- MIC ([1]; isolate K14 5780): 0.125 µg/mL (≈ 0.118 µM)
- MIC ([1]; isolate L1 1423): 0.125 µg/mL (≈ 0.118 µM)
- MIC ([1]; isolate N1 471): 0.125 µg/mL (≈ 0.118 µM)
- MIC ([1]; isolate R1 397): 0.125 µg/mL (≈ 0.118 µM)
- MIC ([1]; isolate V1 1521): 0.125 µg/mL (≈ 0.118 µM)
- MIC ([1]; isolate W1 3931): 0.125 µg/mL (≈ 0.118 µM)
- MIC ([1]; isolate X1 1890): 0.125 µg/mL (≈ 0.118 µM)
- MIC50 [2]: 1 µg/mL (≈ 0.945 µM)
- MIC90 [2]: 1 µg/mL (≈ 0.945 µM)
- MIC range [2]: 0.25 to 2.0 µg/mL
- MIC50 [3]: 8 µg/mL (≈ 7.56 µM)
- MIC90 [3]: 8 µg/mL (≈ 7.56 µM)
- MIC range [3]: 2.0 to 16 µg/mL
- MIC range [4]: 4 to 128 µg/mL
- MIC range [5]: 32 to 128 µg/mL
- MIC50 [6]: < 0.016 µg/mL
- MIC90 [6]: 0.03 µg/mL (≈ 0.0284 µM)
- MIC range [6]: <0.016 to 0.06 µg/mL
- MIC50 [7]: < 0.125 µg/mL
- MIC90 [7]: 16 µg/mL (≈ 15.1 µM)
- MIC range [7]: <0.016 to 16 µg/mL
- MIC90 [8]: > 1020 µg/mL
- MIC50 ([8]; All anaerobic gram-negative species (111)): 256 µg/mL (≈ 242 µM)
- MIC50 ([9]; Cutibacterium acnes): 4 µg/mL (≈ 3.78 µM)
- MIC90 ([9]; Cutibacterium acnes): 4 µg/mL (≈ 3.78 µM)
- MIC range [9]: 0.5 to 1.0 µg/mL
- MIC50 [10]: 32 µg/mL (≈ 30.2 µM)
- MIC90 [10]: 128 µg/mL (≈ 121 µM)
- MIC range [10]: 16 to 128 µg/mL
- MIC50 [11]: > 128 µg/mL
- MIC90 [11]: > 128 µg/mL
